One data set deals with T1, CYP3A4 (Homo sapiens, UniProt P08684).
T1 construct: expressed in transfected cells
As to the kind of experiment: Metabolic potential of microsomes from cells expressing single human CYP 450 isoenzymes. In kind it is in vitro ADME. The conditions noted are these: 50 pmol CYP/ml, nemorubicin 20 μM, NADPH 0.5 mM, 37° C., 20 min; CYP3A4, CYP3A5, CYP1A2, CYP2E1, CYP2D61, CYP2C91, CYP2C8. As for the experimental part:
Microsomes were obtained from cell cultures overexpressing CYP3A4, CYP3A5, CYP1A2, CYP2E1, CYP2D61, CYP2C91 and CYP2C8. Microsomes (50 pmol CYP/ml) were incubated with nemomubicin (20 μM) and NADPH (0.5 mM) in 0.3M Tris (pH 7.4) at 37° C. for 20 min. Nemorubicin metabolism was quantified by HPLC method.
(§1) High-performance liqid chromatographic (HPLC) system consisted of a Waters Model 510 isocratic pump equipped with autosampler. Detection was performed by a Perkin Elmer fluorescence spectrofotometer LS-5 set at 479 and 552 nm excitation and emission wavelength, respectively. Detector was connected to a Shimadzu C-R3A integrator. The cromatographic separation was performed on a Waters Simmetry C8 reverse phase column. The mobile phase was 10 mM KH2P4/Methanol/CH3CN (45:30:25). The flow rate was 1.5 ml/min. Standard curves of fluorescence versus drug concentration for nemorubicin and metabolites were used to calculate drug concentration in the samples.

The subject of the next data set is CYP3A4/5. Briefly: Antibody studies: inhibition of nemorubicin metabolism by human liver microsomes. The conditions noted are these: nemorubicin 20 μM, NADPH 0.5 mM, 10 min at 37° C. Type of data set: in vitro ADME. As for the experimental part:
Human liver microsomes were preincubated at 25° C. for 5 min. with and without a monoclonal antibody anti-CYP3A4/5 (MAB-3A4 Genetest) in Tris 0.3M (pH 7.4) before adding nemorubicin (20 μM and NADPH (0.5 mM). After 10 min at 37° C., the amount of nemorubicin metabolites was evaluated by a HPLC system.
as §1

T1 sequence (P08684 whole entry): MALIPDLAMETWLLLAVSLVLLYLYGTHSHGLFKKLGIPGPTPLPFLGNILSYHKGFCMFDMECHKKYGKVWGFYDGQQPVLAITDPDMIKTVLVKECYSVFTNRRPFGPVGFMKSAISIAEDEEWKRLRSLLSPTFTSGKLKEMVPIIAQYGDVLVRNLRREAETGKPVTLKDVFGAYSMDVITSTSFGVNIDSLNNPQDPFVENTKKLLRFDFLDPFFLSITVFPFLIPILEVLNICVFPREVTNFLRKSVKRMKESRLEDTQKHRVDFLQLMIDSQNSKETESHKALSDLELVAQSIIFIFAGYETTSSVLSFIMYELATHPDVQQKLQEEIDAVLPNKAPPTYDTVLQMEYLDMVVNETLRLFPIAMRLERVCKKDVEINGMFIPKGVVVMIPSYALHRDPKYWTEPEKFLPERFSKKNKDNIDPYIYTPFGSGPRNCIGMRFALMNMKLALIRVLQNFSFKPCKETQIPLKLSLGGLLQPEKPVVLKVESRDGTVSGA

In the case of `COc1cccc2c1C(=O)c1c(O)c3c(c(O)c1C2=O)C[C@@](O)(C(=O)CO)C[C@@H]3O[C@H]1C[C@H](N2CCO[C@H](OC)C2)[C@H](O)[C@H](C)O1` [nemorubicin], on CYP3A4, the “metabolism of nemorubicin by microsomes overexpressing single CYP isoenzymes” value is “Only microsomes from CYP3A4-overexpressing cells were able to metabolize nemorubicin”. For the same compound, the “isoenzyme responsible for nemorubicin metabolism (antibody inhibition)” value in the data set on CYP3A4/5 is given as “only the CYP3A4 isoenzyme is responsible for the metabolism of nemorubicin”.

The values are drawn from patent US20060183168A1, “Method for optimizing therapeutic efficacy of nemorubicin” (priority 2002, published 2006).
